Legend:
Test in all cases: relative viability (nuclei count vs DMSO), 5 days (fraction); higher = more cells survive
[1] = compound: COC1=CC=C(C=C1)CN2C=CC3=C2C=C(C=C3)C(=O)NO + CC1(C)CCC(c2ccc(Cl)cc2)=C(CN2CCN(c3ccc(C(=O)NS(=O)(=O)c4ccc(N[C@H](CCN5CCOCC5)CSc5ccccc5)c(S(=O)(=O)C(F)(F)F)c4)cc3)CC2)C1 [Navitoclax] (partner 0.5 µM)
Procedure, shortened: (§1)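 Relative viability is defined as nuclei in treated wells over nuclei in vehicle wells. Duplicate plates were run and medians reported. Lung cancer cell lines in 1536-well plates were dosed by pin tool one day after seeding, with one drug or with a fixed anchor-drug dose plus five library-drug doses (not always all listed) in √10 steps, and nuclei were counted after 5 days.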

[2] = compound: COC1=CC=C(C=C1)CN2C=CC3=C2C=C(C=C3)C(=O)NO + C[C@]1(O)C[C@@H](c2nc(-c3ccc4ccc(-c5ccccc5)nc4c3)c3c(N)nccn32)C1 [Linsitinib] (partner 1 µM)
Procedure, shortened: as §1

[3] = compound: COC1=CC=C(C=C1)CN2C=CC3=C2C=C(C=C3)C(=O)NO + CC(=O)Nc1cccc(-n2c(=O)n(C3CC3)c(=O)c3c(Nc4ccc(I)cc4F)n(C)c(=O)c(C)c32)c1 [Trametinib] (partner 0.02 µM)
Procedure, shortened: as §1

[4] = compound: COC1=CC=C(C=C1)CN2C=CC3=C2C=C(C=C3)C(=O)NO + CC(=O)c1c(C)c2cnc(Nc3ccc(N4CCNCC4)cn3)nc2n(C2CCCC2)c1=O [Palbociclib] (partner 0.5 µM)
Procedure, shortened: as §1

| Cell Line | relative viability ([1]; first compound 0.08 µM) | relative viability ([1]; first compound 0.253 µM) | relative viability ([1]; first compound 0.8 µM) | relative viability ([1]; first compound 2.53 µM) | relative viability ([1]; first compound 8 µM) | relative viability ([2]; first compound 0.253 µM) | relative viability ([2]; first compound 0.8 µM) | relative viability ([2]; first compound 2.53 µM) | relative viability ([2]; first compound 8 µM) | relative viability ([3]; first compound 0.253 µM) | relative viability ([3]; first compound 0.8 µM) | relative viability ([3]; first compound 2.53 µM) | relative viability ([3]; first compound 8 µM) | relative viability ([2]; first compound 0.08 µM) | relative viability ([4]; first compound 0.253 µM) | relative viability ([4]; first compound 0.8 µM) | relative viability ([4]; first compound 2.53 µM) | relative viability ([4]; first compound 8 µM) | relative viability ([3]; first compound 0.08 µM) | relative viability ([4]; first compound 0.08 µM) |
| --- | --- | --- | --- | --- | --- | --- | --- | --- | --- | --- | --- | --- | --- | --- | --- | --- | --- | --- | --- | --- |
| EBC-1 | 0.399 | 0.406 | 0.378 | 0.304 | 0.313 | 0.883 | 0.941 | 0.907 | 0.768 | – | – | – | – | – | – | – | – | – | – | – |
| EKVX | 0.934 | 1 | 0.968 | 0.988 | 0.952 | 1.07 | 1.06 | 1.12 | 1.03 | 0.28 | 0.345 | 0.366 | 0.305 | 0.825 | 0.408 | 0.387 | 0.384 | 0.351 | – | – |
| EMC-BAC-2 | 0.993 | 1.21 | 1.16 | 1.21 | 1.15 | 0.867 | 0.839 | 0.814 | 0.839 | – | 0.971 | 0.95 | 0.803 | 0.686 | – | 0.528 | 0.511 | 0.459 | 0.629 | 0.401 |
| EPLC-272H | 0.7 | 1.06 | 1.13 | 1.05 | 1.18 | 1.18 | 1.14 | 1.14 | 1.05 | 0.314 | 0.297 | 0.308 | 0.238 | 0.987 | 0.325 | 0.314 | 0.311 | 0.319 | – | – |
| H3255 | 0.574 | 0.501 | 0.503 | 0.541 | 0.46 | 1.01 | 0.943 | 0.859 | 0.835 | 0.608 | 0.618 | 0.672 | 0.547 | 0.853 | 0.304 | 0.316 | 0.311 | 0.32 | 0.593 | 0.301 |
| HARA | 0.479 | 1.1 | 1.13 | 1.17 | 1.14 | 1.01 | 1.01 | 1.07 | 0.962 | 0.607 | 0.668 | 0.849 | 0.705 | 0.126 | 0.218 | 0.243 | 0.3 | 0.238 | – | 0.153 |
| HCC-15 | 0.605 | 0.726 | 0.717 | 0.741 | 0.675 | 0.877 | 0.887 | 0.968 | 0.915 | 0.355 | 0.424 | 0.41 | 0.372 | 0.802 | 0.716 | 0.733 | 0.745 | 0.739 | 0.334 | 0.712 |
| HCC-44 | 0.891 | 0.976 | 0.872 | 0.883 | 0.989 | 0.69 | 0.681 | 0.705 | 0.637 | 1.02 | 0.996 | 1.04 | 1.06 | 0.568 | 0.926 | 1.01 | 0.978 | 0.969 | 1.04 | 0.936 |
| HCC-78 | – | 0.718 | 0.856 | 0.872 | 0.709 | 0.542 | 0.537 | 0.491 | 0.453 | 0.807 | 0.634 | 0.798 | 0.613 | – | 0.473 | 0.45 | 0.496 | 0.452 | 0.671 | 0.437 |

— the supplement of paper PMC10307832
